This note sets out measurements from US7078414B2, “Derivatives of 3-guanidinocarbonyl-1-heteroaryl-pyrrole, preparation process and intermediates of this process, their use as medicaments, and pharmaceutical compositions comprising them” (Sanofi-Aventis Deutschland GmbH, priority 2002, dated 2006).

Counter-ions that a name gives are not always drawn.

One data set deals with T1, NHE-1 subtype (Homo sapiens, UniProt P19634).
T1 construct: expressed in transfected cells; host or cells: LAP-1 cells (parental line has no endogenous NHE activity), stably transfected and kept under G418 selection
T1 sequence (P19634 whole entry): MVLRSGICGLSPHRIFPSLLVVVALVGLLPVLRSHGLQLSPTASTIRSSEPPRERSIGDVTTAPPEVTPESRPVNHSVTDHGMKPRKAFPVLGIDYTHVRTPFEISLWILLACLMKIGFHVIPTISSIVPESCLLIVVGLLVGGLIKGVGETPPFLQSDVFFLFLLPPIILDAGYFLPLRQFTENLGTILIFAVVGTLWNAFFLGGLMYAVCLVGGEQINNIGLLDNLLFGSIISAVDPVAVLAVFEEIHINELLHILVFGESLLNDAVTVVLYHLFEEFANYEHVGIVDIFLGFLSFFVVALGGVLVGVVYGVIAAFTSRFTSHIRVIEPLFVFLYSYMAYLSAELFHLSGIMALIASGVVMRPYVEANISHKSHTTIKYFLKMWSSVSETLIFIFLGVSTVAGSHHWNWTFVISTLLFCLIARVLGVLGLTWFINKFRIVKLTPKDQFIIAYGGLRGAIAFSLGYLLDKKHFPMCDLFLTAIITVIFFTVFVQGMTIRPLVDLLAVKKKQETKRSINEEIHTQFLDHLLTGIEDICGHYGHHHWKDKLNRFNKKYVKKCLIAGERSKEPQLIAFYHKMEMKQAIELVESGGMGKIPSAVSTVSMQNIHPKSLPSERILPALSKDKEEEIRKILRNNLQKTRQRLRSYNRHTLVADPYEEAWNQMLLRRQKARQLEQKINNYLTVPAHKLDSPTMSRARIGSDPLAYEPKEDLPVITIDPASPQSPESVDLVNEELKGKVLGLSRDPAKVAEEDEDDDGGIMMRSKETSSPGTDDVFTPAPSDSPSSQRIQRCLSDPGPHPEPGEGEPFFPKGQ
The experiment in a line: NHE inhibition FLIPR test (intracellular pH recovery, BCECF) in transfected LAP-1 cell lines expressing NHE subtypes. It is filed as cell-based. To be noted: transfected LAP-1 cells expressing NHE-1 subtype, read-out: IC50 (NHE1). As to the method: The NHE inhibitory activities (IC50 values) of the compounds according to the invention were determined by a FLIPR test.
The test is performed in the FLIPR (Fluorescent Imaging Plate Reader) equipped with clear-bottomed and black-walled 96-well microtitration plates.
The growth medium for the transfected cells (Iscove +10% foetal calf serum) also comprises G418 as selection antibiotic to ensure the presence of transfected sequences.
The actual test begins by eliminating the growth medium and adding 100 μl of loading buffer per well (5 μM of BCECF-AM [2′,7′-bis(2-carboxyethyl)-5-(6)-carboxyfluoresceine acetoxymethyl ester] in 20 mM of NH4Cl, 115 mM of choline chloride, 1 mM of CaCl2, 5 mM of KCl, 20 mM of HEPES and 5 mM of glucose; pH 7.4 (adjusted with KOH). The cells are then incubated for 20 minutes at 37° C. This incubation results in the loading of the fluorescent dye into the cells, the fluorescence intensity of which depends on the pHi, and on the NH4Cl, which results in a slight basification of the cells.
The precursor BCECF-AM, a non-fluorescent dye, is, as an ester, capable of crossing the membrane. The actual dye, which is incapable of crossing the membrane, is released inside the cell by esterases.
After this 20-minute incubation, the loading buffer, which comprises NH4Cl and free BCECF-AM, is removed by washing three times in the cell washing device (Tecan Columbus), each wash being performed with 400 μL of washing buffer (133.8 mM of choline chloride, 4.7 mM of KCl, 1.25 mM of MgCl2, 1.25 mM of CaCl2, 0.97 mM of K2HPO4, 0.23 mM of KH2PO4, 5 mM of HEPES and 5 mM of glucose; pH 7.4 (adjusted with KOH)). The residual volume remaining in the wells is 90 μL (possibly between 50 and 125 μL). This washing step removes the free BCECF-AM and results in an intracellular acidification (pHi of 6.3–6.4) due to the removal of the external ammonium ions.
As the equilibrium of the intracellular ammonium with the aqueous ammonia and the protons, by removal of the extracellular ammonium and by the subsequent immediate crossing of the aqueous ammonia across the cell membrane, is disrupted, the washing process results in intracellular protons remaining, which is the cause of the intracellular acidification. This acidification can result finally in the death of the cells if it lasts long enough. It is important here for the washing buffer to be free of sodium (<1 mM), otherwise the extracellular sodium ions would result in an immediate increase in the pHi on account of the activity of the cloned NHE isoforms. It is also important for all the buffers used (loading buffer, washing buffer and regeneration buffer) not to contain any HCO3-ions, otherwise the presence of bicarbonate would result in the activation of bicarbonate-dependent systems that disrupt the pHi regulation, which systems are contained in the LAP-1 parental cell line.
The microtiter plates containing acidified cells are then transferred (up to 20 minutes after the acidification) to the FLIPR. In the FLIPR, the intracellular fluorescent dye is activated with light of a wavelength of 488 nm, which is generated by an argon laser, and the measuring parameters (laser power, illumination time and diaphragm of the […] camera integrated into the FLIPR) are chosen such that the average value of the f fluorescent signal per well is between 30,000 and 35,000 relative fluorescence units.
The actual measurement in the FLIPR starts with a photograph being taken by the CCD camera every two seconds under software control. After 10 seconds, the increase in the intracellular pH is initiated by adding 90 μL of regeneration buffer (133.8 mM of NaCl, 4.7 mM of KCl, 1.25 mM of MgCl2, 1.25 mM of CaCl2, 0.97 mM of K2HPO4, 0.23 mM of KH2PO4, 10 mM of HEPES and 5 mM of glucose; pH 7.4 (adjusted with NaOH)) using a 96-well pipette device incorporated into the FLIPR.
Some wells, to which is added pure regeneration buffer, serve as positive controls (100% NHE activity). […]

For `NC(N)=NC(=O)c1ccn(-c2ccnc3ccccc23)c1` (as salt: hydrochloride) [Example 2, 3-Guanidinocarbonyl-1-(quinol-4-yl)-1H-pyrrole dihydrochloride], the melting point – broadly, the temperature of the solid-liquid transition – was determined as 244 °C. The compound `Cc1c(C(=O)N=C(N)N)ccn1-c1ccnc2ccccc12` (as salt: hydrochloride) [Example 3, 3-Guanidinocarbonyl-2-methyl-1-(quinol-4-yl)-1H-pyrrole dihydrochloride] showed a melting point of 240 °C. As to `Cc1c(C(=O)NC(=N)N)ccn1-c1ccc2ccccc2n1` (as salt: hydrochloride) [Example 4, 3-Guanidinocarbonyl-2-methyl-1-(quinol-2-yl)-1H-pyrrole hydrochloride], the melting point stood at 250 °C. In the case of `Cl.NC(N)=NC(=O)c1ccn(-c2ccc3ccccc3n2)c1` [Example 1, 3-Guanidinocarbonyl-1-(quinol-2-yl)-1H-pyrrole hydrochloride], the melting point was found to be 258 °C. In addition, the IC50 – broadly, the concentration that inhibits the measured activity by half – on NHE-1 subtype came out at 49 nM.

Turning to `NC(N)=NC(=O)c1ccn(-c2ccnc3ccccc23)c1` [Example 2, 3-Guanidinocarbonyl-1-(quinol-4-yl)-1H-pyrrole dihydrochloride], the IC50 at NHE-1 subtype is 22 nM. `Cc1c(C(=O)N=C(N)N)ccn1-c1ccnc2ccccc12` [Example 3, 3-Guanidinocarbonyl-2-methyl-1-(quinol-4-yl)-1H-pyrrole dihydrochloride]: the IC50 at NHE-1 subtype came to 67 nM. Consider `Cc1c(C(=O)NC(=N)N)ccn1-c1ccc2ccccc2n1` [Example 4, 3-Guanidinocarbonyl-2-methyl-1-(quinol-2-yl)-1H-pyrrole hydrochloride], for which the 50% inhibitory concentration (IC50) on NHE-1 subtype was determined as 96 nM. Still for that read-out and setting: the value for `NC(N)=NC(=O)c1ccn(-c2nccc3ccccc23)c1` [Example 5, 3-Guanidinocarbonyl-1-(isoquinol-1-yl)-1H-pyrrole hydrochloride] was 51 nM. Turning to `N=C(N)NC(=O)c1ccn(-c2cccc3ncccc23)c1` [Example 6, 3-Guanidinocarbonyl-1-(quinol-5-yl)-1H-pyrrole], the melting point came to 260 °C. For the same compound, the IC50 at NHE-1 subtype was found to be 44 nM. As for `N=C(N)NC(=O)c1ccn(-c2cccc3cccnc23)c1` [Example 7, 3-Guanidinocarbonyl-1-(quinol-8-yl)-1H-pyrrole], the melting point was determined as 155 °C. Further, on NHE-1 subtype, the IC50 stood at 90 nM. Consider `N=C(N)NC(=O)c1ccn(-c2cncc3ccccc23)c1` [Example 8, 3-Guanidinocarbonyl-1-(isoquinol-4-yl)-1H-pyrrole], for which, at NHE-1 subtype, the IC50 was found to be 121 nM. `Cc1cn(-c2ccnc3ccccc23)cc1C(=O)NC(=N)N` [Example 9, 3-Guanidinocarbonyl-4-methyl-1-(quinol-4-yl)-1H-pyrrole] had a melting point of 215 °C. For the same compound, the IC50 on NHE-1 subtype amounted to 0.25 nM. In the same order, the values of `Cc1cn(-c2nccc3ccccc23)cc1C(=O)NC(=N)N.Cl` [Example 10, 3-Guanidinocarbonyl-1-(isoquinol-1-yl)4-methyl-1H-pyrrole hydrochloride] are 247 °C and 0.16 nM. In the case of `Cc1c(C(=O)NC(=N)N)cn(-c2ccnc3ccccc23)c1C` [Example 11, 3-Guanidinocarbonyl-4,5-dimethyl-1-(quinol-4-yl)-1H-pyrrole dihydrochloride], at NHE-1 subtype, the IC50 is 19 nM. As for `Cl.N=C(N)NC(=O)c1cn(-c2ccnc3ccccc23)cc1C1CC1` [Example 12, 4-Cyclopropyl-3-guanidinocarbonyl-1-(quinolin-4-yl)-1H-pyrrole dihydrochloride], the melting point turned out to be 185 °C. In addition, the IC50 on NHE-1 subtype worked out at 0.5 nM.

Compound `Cc1cn(-c2cccc3ncccc23)cc1C(=O)NC(=N)N.Cl` [Example 13, 3-Guanidinocarbonyl-4-methyl-1-(quinolin-5-yl)-1H-pyrrole hydrochloride] registered a melting point of 240 °C. Besides, at NHE-1 subtype, the IC50 was found to be 0.1 nM. `N=C(N)NC(=O)c1cn(-c2ccnc3ccccc23)cc1C(F)(F)F` [Example 14, 4-Trifluoromethyl-3-guanidinocarbonyl-1-(quinolin-4-yl)-1H-pyrrole]: on NHE-1 subtype, the IC50 was found to be 2.3 nM. Same read-out and setting: the value for `N=C(N)NC(=O)c1cn(-c2nccc3ccccc23)cc1C(F)(F)F` [Example 15, 4-Trifluoromethyl-3-guanidinocarbonyl-1-(isoquinolin-1-yl)-1H-pyrrole hydrochloride] was 2.6 nM; that for `Cc1cc(-n2cc(C)c(C(=O)N=C(N)N)c2)c2ccccc2n1` [Example 16, N-[4-Methyl-1-(2-methyl-quinolin-4-yl)-1H-pyrrole-3-carbonyl]-guanidine trifluoroacetate] was 3.1 nM.

For `Cc1cc(-n2ccc(C(=O)N=C(N)N)c2)c2ccccc2n1` [Example 17, N-[1-(2-Methyl-quinolin-4-yl)-1H-pyrrole-3-carbonyl]-guanidinetrifluoroacetate], on NHE-1 subtype, the IC50 was found to be 10.7 nM. The same measure, in the same setting: the value for `Cc1cn(-c2ccnc3cc(Cl)ccc23)cc1C(=O)N=C(N)N` [Example 18, N-[1-(7-Chloro-quinolin-4-yl)-4-methyl-1H-pyrrole-3-carbonyl]-guanidine trifluoroacetate] was 1.6 nM; that for `NC(N)=NC(=O)c1ccn(-c2ccnc3cc(Cl)ccc23)c1` [Example 19, N-[1-(7-Chloro-quinolin-4-yl)-1H-pyrrole-3-carbonyl]-guanidinetrifluoracetate] was 42.9 nM; that for `Cc1cn(-c2ccnc3ccc(F)cc23)cc1C(=O)N=C(N)N` [Example 20, N-[1-(6-Fluoro-quinolin-4-yl)-4-methyl-1H-pyrrole-3-carbonyl]-guanidine trifluoroacetate] was 0.8 nM. Take `NC(N)=NC(=O)c1ccn(-c2ccnc3ccc(F)cc23)c1` [Example 21, N-[1-(6-Fluoro-quinolin-4-yl)-1H-pyrrole-3-carbonyl]-guanidinetrifluoroacetate]: the IC50 on NHE-1 subtype was found to be 29 nM.

Consider `Cc1cn(-c2ccnc3c(F)cccc23)cc1C(=O)N=C(N)N` [Example 22, N-[1-(8-Fluoro-quinolin-4-yl)-4-methyl-1H-pyrrole-3-carbonyl]-guanidine trifluoroacetate], for which the IC50 at NHE-1 subtype turned out to be 0.2 nM. As for `NC(N)=NC(=O)c1ccn(-c2ccnc3c(F)cccc23)c1` [Example 23, N-[1-(8-Fluoro-quinolin-4-yl)-1H-pyrrole-3-carbonyl]-guanidinetrifluoroacetate], the IC50 on NHE-1 subtype stood at 97.7 nM. Consider `NC(N)=NC(=O)c1ccn(-c2cnnc3ccccc23)c1` [Example 24, N-(1-Cinnolin-4-yl-1H-pyrrole-3-carbonyl)-guanidine trifluoroacetate], for which the IC50 at NHE-1 subtype was determined as 222 nM.

In turn, `Cc1cn(-c2ncccn2)cc1C(=O)NC(=N)N` [Example 25, N-(4-Methyl-1-pyrimidin-2-yl-1H-pyrrole-3-carbonyl)-guanidine] came in with a melting point of 208.5 °C. Take `Cc1cn(-c2ccccn2)cc1C(=O)NC(=N)N` [Example 26, N-(4-Methyl-1-pyridin-2-yl-1H-pyrrole-3-carbonyl)-guanidine]: the IC50 on NHE-1 subtype is 3.6 nM. For `Cc1cn(-c2cccnc2)cc1C(=O)NC(=N)N` [Example 27, N-(4-Methyl-1-pyridin-3-yl-1H-pyrrole-3-carbonyl)-guanidine], on NHE-1 subtype, the IC50 was 0.6 nM. Turning to `Cc1cn(-c2cncnc2)cc1C(=O)NC(=N)N` [Example 28, N-(4-Methyl-1-pyrimidin-5-yl-1H-pyrrole-3-carbonyl)-guanidine], at NHE-1 subtype, the IC50 was found to be 192 nM.
